Reference: ChEMBL document CHEMBL1147303, “Antimicrobial tetraprenylphenols from Suillus granulatus” (1989)
Converted amounts (≈) assume the structure as drawn.

What was measured:
Type in all cases: functional
Aeromonas hydrophila = assay: Antibacterial activity against Aeromonas hydrophila by serial broth dilution assay
Staphylococcus aureus = assay: Antibacterial activity against Staphylococcus aureus ATCC 25923 by serial broth dilution assay
Micrococcus luteus = assay: Antibacterial activity against Micrococcus luteus ATCC 4698 by paper disc-agar diffusion assay
Hafnia alvei = assay: Antibacterial activity against Hafnia alvei by serial broth dilution assay
Enterococcus faecalis = assay: Antibacterial activity against Streptococcus faecalis by serial broth dilution assay
Escherichia coli = assay: Antibacterial activity against Escherichia coli ATCC 25922 by serial broth dilution assay
Bacillus subtilis = assay: Antibacterial activity against Bacillus subtilis by serial broth dilution assay
Proteus mirabilis = assay: Antibacterial activity against Proteus mirabilis by serial broth dilution assay

Compound | MIC (Aeromonas hydrophila) | MIC (Staphylococcus aureus) | MIC (Micrococcus luteus) | MIC (Hafnia alvei) | MIC (Enterococcus faecalis) | MIC (Escherichia coli) | MIC (Bacillus subtilis) | MIC (Proteus mirabilis)
COc1ccc(O)c(O)c1C/C=C(\C)CC/C=C(\C)CC/C=C(\C)CCC=C(C)C | > 100 µg/mL | > 100 µg/mL | 100 µg/mL (≈ 242 µM) | > 100 µg/mL | > 100 µg/mL | > 100 µg/mL | > 100 µg/mL | > 100 µg/mL
CC(C)=CCC/C(C)=C/CC/C(C)=C/CCC1(C)C=Cc2c(ccc(O)c2O)O1 (stereo not given) | > 100 µg/mL | > 100 µg/mL | > 100 µg/mL | > 100 µg/mL | > 100 µg/mL | > 100 µg/mL | > 100 µg/mL | > 100 µg/mL
CC(=O)Oc1c(O)ccc(O)c1C/C=C(\C)CC/C=C(\C)CC/C=C(\C)CCC=C(C)C | > 100 µg/mL | > 100 µg/mL | 50 µg/mL (≈ 113 µM) | > 100 µg/mL | 100 µg/mL (≈ 227 µM) | 50 µg/mL (≈ 113 µM) | > 100 µg/mL | > 100 µg/mL

More lines, in order of falling MIC (Aeromonas hydrophila), values ahead:

MIC (Aeromonas hydrophila) | MIC (Staphylococcus aureus) | MIC (Micrococcus luteus) | MIC (Hafnia alvei) | MIC (Enterococcus faecalis) | MIC (Escherichia coli) | MIC (Bacillus subtilis) | MIC (Proteus mirabilis) | Compound
12.5 µg/mL (≈ 28.4 µM) | > 100 µg/mL | 50 µg/mL (≈ 113 µM) | > 100 µg/mL | > 100 µg/mL | 6.25 µg/mL (≈ 14.2 µM) | > 100 µg/mL | > 100 µg/mL | CC(=O)Oc1c(O)cc(O)cc1C/C=C(\C)CC/C=C(\C)CC/C=C(\C)CCC=C(C)C
0.78 µg/mL (≈ 1.89 µM) | > 100 µg/mL | 6.25 µg/mL (≈ 15.1 µM) | > 100 µg/mL | > 100 µg/mL | 1.56 µg/mL (≈ 3.78 µM) | > 100 µg/mL | > 100 µg/mL | COc1c(O)cc(O)cc1C/C=C(\C)CC/C=C(\C)CC/C=C(\C)CCC=C(C)C
